Columns and labels:
Assay in all cases: Post-emergence efficacy, Method A
Format in all cases: in vivo
Eleusine indica (ELEIN) = conditions: 100=total damage to plant, 0=no damage, evaluated after 7 and 14 days, read-out: Control of weed species after post-emergence application, ELEIN
[1] = tested on: Ipomoea hederacea (IPOHE); conditions: 100=total damage to plant, 0=no damage, evaluated after 7 and 14 days, read-out: Control of weed species after post-emergence application, IPOHE
[2] = tested on: Euphorbia heterophylla (EPHHL); conditions: 100=total damage to plant, 0=no damage, evaluated after 7 and 14 days, read-out: Control of weed species after post-emergence application, EPHHL
[3] = tested on: Echinochloa crus-galli (ECHCG); conditions: 100=total damage to plant, 0=no damage, evaluated after 7 and 14 days, read-out: Control of weed species after post-emergence application, ECHCG
[4] = tested on: Digitaria sanguinalis (DIGSA); conditions: 100=total damage to plant, 0=no damage, evaluated after 7 and 14 days, read-out: Control of weed species after post-emergence application, DIGSA
Setaria faberi (SETFA) = conditions: 100=total damage to plant, 0=no damage, evaluated after 7 and 14 days, read-out: Control of weed species after post-emergence application, SETFA
[5] = tested on: Amaranthus palmeri (AMAPA); conditions: 100=total damage to plant, 0=no damage, evaluated after 7 and 14 days, read-out: Control of weed species after post-emergence application, AMAPA
Lolium perenne (LOLPE) = conditions: 100=total damage to plant, 0=no damage, evaluated after 7 and 14 days, read-out: Control of weed species after post-emergence application, LOLPE
[6] = tested on: Chenopodium album (CHEAL); conditions: 100=total damage to plant, 0=no damage, evaluated after 7 and 14 days, read-out: Control of weed species after post-emergence application, CHEAL

Compound | pest or weed control at 500 g/ha (Eleusine indica (ELEIN)) [%] | pest or weed control at 500 g/ha [1] [%] | pest or weed control at 500 g/ha [2] [%] | pest or weed control at 500 g/ha [3] [%] | pest or weed control at 500 g/ha [4] [%] | pest or weed control at 500 g/ha (Setaria faberi (SETFA)) [%] | pest or weed control at 500 g/ha [5] [%] | pest or weed control at 500 g/ha (Lolium perenne (LOLPE)) [%] | pest or weed control at 500 g/ha [6] [%] | other results
O=C(O)CC[n+]1ccc(-c2nc(C(F)(F)F)ns2)cc1 [Compound A48, 3-[4-[3-(trifluoromethyl)-1,2,4-thiadiazol-5-yl]pyridin-1-ium-1-yl]propanoic acid acetate] | – | – | – | – | – | – | – | – | – | pest or weed control at 125 g/ha (Eleusine indica (ELEIN); 125 g/Ha): 0%; pest or weed control at 125 g/ha ([1]; 125 g/Ha): 0%; pest or weed control at 125 g/ha ([2]; 125 g/Ha): 30%; pest or weed control at 125 g/ha ([3]; 125 g/Ha): 0%; pest or weed control at 125 g/ha ([4]; 125 g/Ha): 0%; pest or weed control at 125 g/ha (Setaria faberi (SETFA); 125 g/Ha): 20%; pest or weed control at 125 g/ha ([5]; 125 g/Ha): 90%; pest or weed control at 125 g/ha (Lolium perenne (LOLPE); 125 g/Ha): 10%; pest or weed control at 125 g/ha ([6]; 125 g/Ha): 10%
Cn1nnnc1-c1cc[n+](CC(=O)O)cc1 [Compound A33] | 20 | 0 | 40 | 0 | 20 | 0 | 90 | 0 | 40 | –
O=S(=O)([O-])CCC[n+]1ccc(-c2cnsn2)cc1 [Compound A12] | – | – | – | – | – | – | – | – | – | pest or weed control at 1000 g/ha (Eleusine indica (ELEIN); 1000 g/Ha): 20%; pest or weed control at 1000 g/ha ([1]; 1000 g/Ha): 0%; pest or weed control at 1000 g/ha ([2]; 1000 g/Ha): 20%; pest or weed control at 1000 g/ha ([3]; 1000 g/Ha): 0%; pest or weed control at 1000 g/ha ([4]; 1000 g/Ha): 20%; pest or weed control at 1000 g/ha (Setaria faberi (SETFA); 1000 g/Ha): 0%; pest or weed control at 1000 g/ha ([5]; 1000 g/Ha): 0%; pest or weed control at 1000 g/ha (Lolium perenne (LOLPE); 1000 g/Ha): 10%; pest or weed control at 1000 g/ha ([6]; 1000 g/Ha): 0%
Cn1nnc(-c2cc[n+](CC(=O)O)cc2)n1 [Compound A34] | 0 | 0 | 0 | 0 | 0 | 0 | 70 | 0 | 0 | –
COC(=O)C[n+]1ccc(-c2nnco2)cc1 [Compound A16] | 10 | 20 | 20 | 20 | 40 | 30 | 0 | 0 | 0 | –
O=S(=O)([O-])C[n+]1ccc(-c2nc(Br)ns2)cc1 [Compound A96] | 90 | 30 | 100 | 100 | 100 | 80 | 100 | 100 | 100 | –
N#Cc1csc(-c2cc[n+](CCC(=O)O)cc2)n1 [Compound A88] | 0 | 0 | 90 | 0 | 0 | 0 | 10 | 0 | 20 | –
Cn1nnc(-c2cc[n+](CCS(=O)(=O)[O-])cc2)n1 [Compound A27] | 0 | 10 | 20 | 0 | 0 | 0 | 10 | 0 | 10 | –
Cn1nnnc1-c1cc[n+](CCS(=O)(=O)[O-])cc1 [Compound A26] | 10 | 10 | 20 | 10 | 20 | 10 | 0 | 10 | 10 | –
O=S(=O)([O-])CC[n+]1ccc(-c2ncns2)cc1 [Compound A5, 2-[4-(1,2,4-thiadiazol-5-yl)pyridin-1-ium-1-yl]ethanesulfonate] | 80 | 70 | 100 | 40 | 70 | 60 | 100 | 70 | 90 | –
Cc1nnc(-c2cc[n+](CCCS(=O)(=O)[O-])cc2)o1 [Compound A36] | 10 | 30 | 60 | 10 | 30 | 10 | 70 | 0 | 60 | –
O=C(O)C[n+]1ccc(-c2ncns2)cc1 [Compound A6] | 90 | 80 | 100 | 90 | 70 | 80 | 100 | 30 | 100 | –
Cc1nc(-c2cc[n+](CCCS(=O)(=O)[O-])cc2)no1 [Compound A71] | 20 | 30 | 40 | 20 | 30 | 10 | 20 | 0 | 50 | –
Nc1nnc(-c2cc[n+](CC(=O)O)cc2)s1 [Compound A94] | 40 | 10 | 30 | 20 | 30 | 10 | 30 | 10 | 40 | –
O=S(=O)([O-])C[n+]1ccc(-c2nc(C(F)(F)F)ns2)cc1 [Compound A85] | 100 | 100 | 100 | 100 | 100 | 100 | 100 | 90 | 90 | –

From patent US20220104493A1, “HERBICIDAL COMPOUNDS” (SYNGENTA CROP PROTECTION AG, priority 2019, published 2022)
